Results taken from patent US8815829B2, “3′-azido purine nucleotide prodrugs for treatment of viral infections” (priority 2008, dated 2014).
Read-outs that look alike come from different tables or passages of the source. Blank lines part the entries; values can stand above or below the molecule they belong to.

Assays:
HIV-1/LAI = test: Anti-HIV-1 assay in PBM cells; assay type: cell-based
Description: Stock solutions (20-40 mM) of the compounds were prepared in sterile DMSO and then diluted to the desired concentration in growth medium. Cells were infected with the prototype HIV-1LAI at a multiplicity of infection of 0.01. Virus obtained from the cell supernatant was quantified on day 6 after infection by a reverse transcriptase assay using (rA)n·(dT)12-18 as template-primer. […] The antiviral EC50 and EC90 were obtained from the concentration-response curve using the median effective method described previously (see Chou T.-C. & Talalay P. Adv. Enzyme Regul. 1984, 22, 27-55; Belen'kii M. S. & Schinazi R. F. Antiviral Res. 1994, 25, 1-11).

HIV-2/pROD10 = test: HIV-2 drug susceptibility in PBM cells; assay type: cell-based; conditions: Human immunodeficiency virus 2, PBMC
PBM cells [1] = test: Cytotoxicity assay in PBM cells; assay type: cell-based, human
WT (LAI) HIV-1 = test: Single cycle assay in P4/R5 cells, WT HIV-1; assay type: cell-based
Description: (§1) In a 96-well plate, two- or three-fold serial dilutions of an inhibitor were added to P4/R5 cells in triplicate. […] At 48 h post-infection, a cell lysis buffer and luminescent substrate (Gal-Screen; Tropix/Applied Biosystems) was added to each well, and relative light unit values were determined using a luminometer (ThermoLabSystems, Waltham, Mass.).
(§2) Virus stocks were prepared as described above. Drug susceptibility assays were performed using the single- and multiple-replication-cycle assays also described above.

[2] = system: HIV-1 AZT2 (D67N/K70R/T215F/K219Q); test: microbe, parasite or virus in culture; assay type: cell-based; conditions: for EC50: Human immunodeficiency virus 1, P4/R5 cells, mean ± standard deviation
Description: as §1, §2

[3] = system: HIV-1 AZT3 (M41L/L210W/T215Y); test: microbe, parasite or virus in culture; assay type: cell-based; conditions: for EC50: Human immunodeficiency virus 1, P4/R5 cells, mean ± standard deviation
Description: as §1, §2

[4] = system: HIV-1 AZT7 (M41L/D67N/K70R/T215F/K219Q); test: microbe, parasite or virus in culture; assay type: cell-based; conditions: for EC50: Human immunodeficiency virus 1, P4/R5 cells, mean ± standard deviation
Description: as §1, §2

[5] = system: HIV-1 AZT9 (M41L/D67N/K70R/L210W/T215Y/K219Q); test: microbe, parasite or virus in culture; assay type: cell-based; conditions: for EC50: Human immunodeficiency virus 1, P4/R5 cells, mean ± standard deviation
Description: as §1, §2

HIV-1 K65R = test: microbe, parasite or virus in culture; assay type: cell-based; conditions: for EC50: Human immunodeficiency virus 1, P4/R5 cells, mean ± standard deviation
Description: as §1, §2

HIV-1 L74V = test: microbe, parasite or virus in culture; assay type: cell-based; conditions: for EC50: Human immunodeficiency virus 1, P4/R5 cells, mean ± standard deviation
Description: as §1, §2

HIV-1 M184V = test: microbe, parasite or virus in culture; assay type: cell-based; conditions: for EC50: Human immunodeficiency virus 1, P4/R5 cells, mean ± standard deviation
Description: as §1, §2

[6] = system: HIV-1 Q151Mc (A62V/V75I/F77L/F116Y/Q151M); test: microbe, parasite or virus in culture; assay type: cell-based; conditions: mean ± standard deviation
Description: as §1, §2

[7] = system: HIV-1 T69SSS (M41L/T69SSS/L210W/T215Y); test: microbe, parasite or virus in culture; assay type: cell-based; conditions: Human immunodeficiency virus 1, P4/R5, P4/R5 cells, mean ± standard deviation
Description: as §1, §2

adenosine deaminase = test: Adenosine deaminase assay (deamination of nucleosides); assay type: in vitro ADME; conditions: 50 μM, pH 7.4
Description: In order to determine if these 6-substituted compounds are converted to G analogs by the enzyme adenosine deaminase, a series of enzyme kinetics experiments were undertaken.
To determine the propensity for deamination of the APN nucleosides by adenosine deaminase, nucleoside compounds were incubated with the commercially available purified enzyme, and the reaction was followed spectrophotometrically. Reaction conditions were 50 mM potassium phosphate, pH 7.4, with 50 μM APN nucleoside in 0.5 mL at 25° C. Reaction time was 7 minutes with 0.002 units of enzyme and 120 minutes with 0.2 units of enzyme. (The unit definition of adenosine deaminase is one unit will deaminate 1.0 μmol of adenosine to inosine per minute at pH 7.5 at 25° C.) Deoxyadenosine was the positive control which was 59% deaminated under the given conditions in 7 minutes with 0.002 units of enzyme. Deoxyguanosine was the negative control. Optical density was measured at 265 nm or 285 nm. The difference in optical density between the beginning and the end of the experiment was divided by the extinction coefficient then multiplied by the volume of the reaction to determine the number of mols of substrate transformed into product. Mols of product were divided by mols of substrate equivalent to a 100% complete reaction then multiplied by 100 to obtain percent deamination. The limit of detection was 0.001 optical density units.

MT-2 cells = test: Intracellular nucleotides formed in MT-2 cells; assay type: in vitro ADME
PBM cells [8] = conditions: human, 4 h, 50 μM
Wild-type (WT) HIV-1 RT = target: T1, Wild-type (WT) HIV-1 RT (Human immunodeficiency virus type 1 group M subtype B, UniProt P03367); test: Inhibition of HIV-1 RT DNA synthesis by 6-modified-AZG analogs; assay type: biochemical; conditions: DNA/DNA template/primer, 200 nM WT RT, 40 min
T1 construct: HIV-1 RT (xxLAI background); inferred from vector p6HRT-PROT and the cited metal chelate purification; made in house; host or cells: bacteria (p6HRT-PROT expression vector)
Description: Wild-type (WT) HIV-1 RT was purified as described previously (1, 2). […] The 214 nucleotide (nt) DNA template, corresponding to the HIV-1 PBS region, was prepared as described previously (4). Reactions were initiated by the addition of 200 nM WT RT, incubated for 40 min at 37° C. and then quenched using 20 μL of gel loading buffer (98% deionized formamide containing 1 mg/mL each of bromophenol blue and xylene cyanol). […] Gels were analyzed using phosphorimaging with a GS525 Molecular Imager and Quantity One Software (Biorad Laboratories, Inc., Hercules, Calif.).

151M complex RT = test: Studies with purified RT: inhibition of 151M complex RT; assay type: biochemical, HIV-1
CEM cells = test: Cytotoxicity assay in CEM cells; assay type: cell-based, human; conditions: Tables 2-4; read-out: CEM IC50
Vero cells = test: Cytotoxicity assay in Vero cells; assay type: cell-based; conditions: read-out: Vero IC50; Tables 2-4
NRTI-resistant HIV-1 = test: Cross-resistance against a broad panel of NRTI-resistant HIV-1; assay type: cell-based
[9] = Human immunodeficiency virus 1, P4/R5, read-out: EC50 WT (LAI), P4/R5 cells, mean ± standard deviation
[10] = Human immunodeficiency virus 1, P4/R5, P4/R5 cells

Compound: Cc1cn([C@H]2C[C@H](N=[N+]=[N-])[C@@H](CO)O2)c(=O)[nH]c1=O [AZT, 3′-azido-3′-deoxythymidine, reference compound]
EC90 (HIV-1/LAI; Human immunodeficiency virus 1, PBMC, PBM cells, read-out: HIV-1/LAI (PBM) EC90): 20 nM | EC50 (HIV-2/pROD10): 7.6 nM | EC90 (HIV-2/pROD10): 64 nM | IC50 (PBM cells [1]; Homo sapiens, PBMC, Table 5, read-out: Toxicity IC50 PBM): > 100000 nM | EC50 (WT (LAI) HIV-1; [9]): 126 ± 40 nM | EC50 [2]: 11100 ± 4300 nM | EC50 [3]: 2850 ± 880 nM | EC50 [4]: > 90000 nM | EC50 [5]: > 90000 nM | EC50 (HIV-1 K65R): 163 ± 60 nM | EC50 (HIV-1 L74V): 156 ± 30 nM | EC50 (HIV-1 M184V): 95 ± 40 nM | EC50 [6, 10]: > 90000 nM | EC50 [7]: > 90000 nM

Deamination in 7 min (0.002 units Adenosine Deaminase) (adenosine deaminase; 7 min): 12.81 ± 1.57% | Deamination in 120 min (0.2 units Adenosine Deaminase) (adenosine deaminase; 120 min): 240.53 ± 5.86% | level of unchanged drug (MT-2 cells; MT-2 cells treated with drug for 30 min): Negligible levels of 6415 were detected | AZG-TP levels compared with AZG treatment (MT-2 cells; MT-2 cells, 4 hr at 50 μM): higher | nucleotides detected (LC/MS) (PBM cells [8]): detection of RFS-457-TP
Compound: [N-]=[N+]=N[C@H]1C[C@H](n2cnc3c(Cl)nc(N)nc32)O[C@@H]1CO [Compound 68, ((2S,3S,5R)-5-(2-amino-6-chloro-9H-purin-9-yl)-3-azidotetrahydrofuran-2-yl)methanol]
species not detected (LC/MS) (PBM cells [8]): Neither Compound 6415 nor its phosphates were detected

Compound: [N-]=[N+]=N[C@H]1C[C@H](n2cnc3c(N)nc(N)nc32)O[C@@H]1COP(=O)(O)OP(=O)(O)OP(=O)(O)O [RS-667-TP]
potency of inhibition of HIV-1 RT DNA synthesis (rank order) (Wild-type (WT) HIV-1 RT): most potent analog | potency against 151M complex RT (151M complex RT): less potent than AZG-TP

Compound: CCOC(=O)[C@H](C)NP(=O)(OC[C@H]1O[C@@H](n2cnc3c(N)nc(N)nc32)CC1N=[N+]=[N-])Oc1ccccc1 (stereo partly drawn) [RS-788]
EC50 (HIV-1/LAI; Tables 2-4, n = 3 for the MP prodrugs, read-out: HIV EC50): 9 nM | EC90 (HIV-1/LAI; Tables 2-4, n = 3 for the MP prodrugs, read-out: HIV EC90): 110 nM | IC50 (PBM cells [1]; Tables 2-4, read-out: PBM IC50): 38300 nM | IC50 (CEM cells): 30400 nM | IC50 (Vero cells): > 100000 nM | fold more potent against WT HIV-1 compared to either RS-667 or RFS-457 (WT (LAI) HIV-1): ~10 fold | EC50 (WT (LAI) HIV-1; [9]): 120 nM | EC50 (WT (LAI) HIV-1; read-out: EC50 WT (LAI), P4/R5 cells, mean ± standard deviation): 118 ± 60 nM | Fold-change versus WT, AZT2 ([2]; EC50 mutant / EC50 WT): (2.3) fold | EC50 [2]: 274 ± 70 nM | Fold-change versus WT, AZT3 ([3]; EC50 mutant / EC50 WT): (1.6) fold | EC50 [3]: 189 ± 20 nM | Fold-change versus WT, AZT7 ([4]; EC50 mutant / EC50 WT): (2.3) fold | EC50 [4]: 270 ± 50 nM | Fold-change versus WT, AZT9 ([5]; EC50 mutant / EC50 WT): (2.1) fold | EC50 [5]: 253 ± 90 nM | Fold-change versus WT, K65R (HIV-1 K65R; EC50 mutant / EC50 WT): (0.9) fold | EC50 (HIV-1 K65R): 106 ± 70 nM | Fold-change versus WT, L74V (HIV-1 L74V; EC50 mutant / EC50 WT): (0.6) fold | EC50 (HIV-1 L74V): 73 ± 20 nM | Fold-change versus WT, M184V (HIV-1 M184V; EC50 mutant / EC50 WT): (0.4) fold | EC50 (HIV-1 M184V): 48 ± 30 nM | EC50 [6, 10]: 280 nM | EC50 ([6]; P4/R5 cells): 277 ± 70 nM | EC50 [7]: 440 nM | cross-resistance profile compared to AZD, AZG or AZT (NRTI-resistant HIV-1): superior cross-resistance profile
